Laboratory results from patent US20240366693A1, “COMPOSITIONS FOR ENHANCING IMMUNOTHERAPY EFFICACY IN COLORECTAL CANCER TREATMENT” (The Chinese University of Hong Kong, priority 2023, published 2024).

Tests used:
IDO1 = IDO1 mRNA expression in human CRC cell lines induced with IFNγ; format: cell-based; details: HCT116 and LoVo; ICA 5 μM; IFNγ 100 ng/mL
Protocol: (§1) Total RNAs were extracted from cell pellets or colonic tissues using TRIzol Reagent (Life Technologies). Complementary DNA (cDNA) was prepared using PrimeScript RT Reagent Kit with gDNA Eraser (Takara, Shiga, Japan). The relative level of specific genes was determined by QuantStudio™ 7 Flex Real-Time PCR System (Thermo Fisher Scientific). All gene expression values were normalized to β-actin and calculated using the 2-ΔΔCt method.
Given that ICA was identified as the functional metabolite of L. gallinarum (FIG. 4), we postulated that ICA could be an IDO1 inhibitor. We added IFNγ (100 ng/mL) to induce IDO1 expression.

AHR = AHR target gene CYP1B1 expression on CD4+ T cells; format: cell-based, mouse
Protocol: (§2) T cells were isolated from spleens of tumour-bearing mice by negative selection using magnetic cell separation (EasySep mouse T cell isolation kit, CD8+ T cell isolation kit or CD4+ CD25+ Regulatory T cell Isolation Kit II; STEMCELL Technologies, Vancouver, Canada). Isolated T cells were cultured in Roswell Park Memorial Institute 1640 medium supplemented with 10% FBS, 50 μM β-mercaptoethanol, 10 ng/ml mouse recombinant interleukin-2 (IL-2), 0.1 ng/mL transforming growth factor β (TGFβ) and activated with Dynabeads mouse anti-CD3/CD28 beads (Thermo Fisher Scientific, Waltham, MA) for 72 hours. Cells were then collected for analysis.
as §1

CT26 = assay: ICA model in CT26 syngeneic mice with anti-PD1 and Kyn supplementation; format: in vivo, mouse
Protocol: For indolecarboxylic acid (ICA) model, ICA (18 mg/kg, Sigma-Aldrich, St. Louis, MO) was gavaged to mice daily. Tumour inoculation and dosing schedule of anti-PD1 or isotype control is the same as described above. After the outgrowth of palpable tumours, kynurenine (Kyn, 10 mg/kg, Sigma-Aldrich) was intraperitoneally injected into mice twice weekly.

human AHR protein = target: T1, human AHR protein (Homo sapiens, UniProt P35869); assay: biochemical; format: binding
T1 sequence (P35869 11-848): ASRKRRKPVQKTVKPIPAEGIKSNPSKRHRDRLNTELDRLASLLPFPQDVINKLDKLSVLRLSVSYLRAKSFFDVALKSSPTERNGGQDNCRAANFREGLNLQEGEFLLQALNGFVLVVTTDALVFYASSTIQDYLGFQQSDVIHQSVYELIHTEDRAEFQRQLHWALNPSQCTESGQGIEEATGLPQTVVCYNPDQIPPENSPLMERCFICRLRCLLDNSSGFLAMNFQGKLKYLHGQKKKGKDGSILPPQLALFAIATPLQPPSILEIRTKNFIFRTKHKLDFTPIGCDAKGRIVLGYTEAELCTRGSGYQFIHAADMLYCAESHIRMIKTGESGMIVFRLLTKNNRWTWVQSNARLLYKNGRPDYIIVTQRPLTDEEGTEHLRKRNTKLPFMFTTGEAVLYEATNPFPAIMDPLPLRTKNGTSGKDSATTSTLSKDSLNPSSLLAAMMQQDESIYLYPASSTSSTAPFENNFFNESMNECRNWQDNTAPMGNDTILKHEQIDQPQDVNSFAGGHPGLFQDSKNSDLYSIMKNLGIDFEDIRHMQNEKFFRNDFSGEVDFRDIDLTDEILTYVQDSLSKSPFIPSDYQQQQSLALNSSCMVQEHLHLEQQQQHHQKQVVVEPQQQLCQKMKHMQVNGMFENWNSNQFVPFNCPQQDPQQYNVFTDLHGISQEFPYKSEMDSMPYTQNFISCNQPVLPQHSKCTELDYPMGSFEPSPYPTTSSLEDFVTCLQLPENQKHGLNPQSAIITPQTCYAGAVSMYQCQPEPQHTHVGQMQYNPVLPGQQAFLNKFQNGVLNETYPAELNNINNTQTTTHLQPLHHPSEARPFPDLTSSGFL
Description: We also performed the surface plasma resonance (SPR) assay to explore the interaction between ICA/Kyn with the human AHR receptor. […] These support our hypothesis that ICA displaces Kyn from AHR receptor and inhibited Kyn-mediated Treg differentiation through receptor competition.

CD4+ T cells = assay: Foxp3+ Treg differentiation of CD4+ T cells in vitro; format: cell-based, mouse
Protocol: as §2

HCT116, LoVo, SW480 [1] = assay: Cell viability assay on CRC cells (R. intestinalis example); format: cell-based, human; details: R.i CM 5% (vol/vol); butyrate 1 mM; inosine 0.4 μg/ml
Protocol: 1000 cells per well were seed into a 96-well plate and treated with alive or pasteurized E. coli (CFU=10^6/ml) and R. intestinalis (CFU=10^6/ml), 5% (vol/vol) YCFA, E. coli CM, R. i CM in DMEM separately. Cell viability was determined by Thiazolyl Blue Tetrazolium Bromide (M5644, Merck KGaA, Dacmstadt, DE) 3 days constantly.

HCT116, LoVo, SW480 [2] = assay: Cell apoptosis and cell cycle (flow cytometry, western blot); format: cell-based, human; details: R.i CM 5%; butyrate 1 mM; inosine 0.4 μg/ml
Protocol: Flow Cytometry was used for cell apoptosis and cell cycle analysis with FACSAria cell sorter (BD Biosciences, Franklin Lakes, US). Data was analyzed by FlowJo 10.4.
Cell apoptosis was detected by FITC Annexin V apoptosis detection kit (556547, BD Biosciences, Franklin Lakes, US). Adherent cells were removed by Trypsin-EDTA solution and washed with cold PBS twice and then resuspend in binding buffer at a concentration of 1× 10^6 cells/ml. 100 μl of cell solution was transferred to a 5 ml tube, incubated with 5 μl FITC Annexin V and 5 μl PI for 15 minutes at 25° C. in the dark. Cells were added with 400 μl binding buffer to stop staining and analyzed by flow cytometer in one hour.
For cell cycle analysis, cell pellet was washed by PBS and incubated in 70 to 80% ethanol at −20° C. for more than two hours. In each test, 10^6 cells were used for staining in 0.5 ml PI/RNase staining buffer (550825, BD Biosciences, Franklin Lakes, US) for 15 minutes at room temperature in the dark. Tubes were stored at 4° C. protected from light and analyzed on flow cytometer with one hour.

NF-κB = assay: Phospho-NF-κB p65 in activated Jurkat E6.1 T cells; format: cell-based, human; details: α-CD3/CD28/IL-2 activated Jurkat E6.1 T cells
Protocol: Phospho-NF-κB p65 (Ser536) Rabbit mAb (3033, Cell Signalling Technology, Danvers, US, 1:1000) and NF-κB p65 (D14E12) Rabbit mAb (8242, Cell Signalling Technology, Danvers, US, 1:1000) were used to measure NF-κB nuclear translocation in αCD3/αCD28/IL2 activated Jurkat E6.1 T cells.
Normal human epithelial cell NCM460, human CRC cell lines HCT116, LoVo, SW480, and mouse CRC cell lines MC38 and CT26 were cultured in Dulbecco's Modified Eagle's Medium (DMEM) with 10% fetal bovine serum (FBS) and 1% penicillin-streptomycin (P/S). Jurkat E6.1 (TIB-152, ATCC) was cultured in RPMI-1640 supplied with 10% FBS and 1% penicillin-streptomycin and activated in 3 μg/ml anti-CD3 (300332, BioLgend, San Diego, US), 5 μg/ml anti-human CD28 (302934, BioLgend, San Diego, US) and 100 IU/ml recombinant human IL-2 (589104, BioLgend, San Diego, US) pre-coated wells for 3 days.

Tlr5 [3] = assay: qPCR of receptors and transporters on CD8+ T cells; format: cell-based, mouse; details: butyrate treatment
Protocol: Total RNA was extracted with Trizol (15596018, Invitrogen, Waltham, US) from naïve mouse spleen isolated T cells after CD3/CD28/IL-2 activation and R.i CM and Butyrate treatments. Then, RNA was reverse transcript into cDNA with RT reagent kit with gDNA eraser (R[…], Takara, Tokyo, JPN). qPCR was performed using TB Green Premix (R[…], Takara) in the QuantStudio 7 Flex System (Thermo Fisher Scientific, Waltham, US). The relative RNA expression was normalized to that of β-actin as denominators.

CD8+ T cells [4] = assay: Cytotoxic CD8+ T cell markers, T cells from mouse spleen; format: cell-based; details: butyrate 1 mM, inosine 0.4 μg/ml
Protocol: (§3) T cells isolated from healthy human peripheral blood mononuclear cells (PBMC) using immunomagnetic negative selection kit (17951, Stemcell Technologies, Vancouver, CA). Isolated T cells were then cultured in complete RPMI-1640 medium supplied with human CD3/CD28 magnet beads (11161D, Thermo Fisher Scientific, Waltham, US) and 30 U/ml recombinant human IL-2 (589104, BioLgend, San Diego, US) for expiation and activation for three days. Mouse T cells were isolated from the spleen of naïve mice and purified with Mouse T cell isolation kit (19851, Thermo Fisher Scientific, Waltham, US), cultured in complete RPMI-1640 medium with mouse CD3/CD28 beads (11456D, Thermo Fisher Scientific, Waltham, US) and 30 U/ml recombinant mouse IL-2 (575404, BioLegend, San Diego, US).
(§4) Cytotoxic CD8+ T cell markers Granzyme B, IFN-γ, TNF-α under the in vitro treatments of R.i CM, NaBu or TLR5 inbibitor TH1020 (HY-116961, MedChemExpress, Monmouth Junction, US) were analyzed with flow cytometry. Isolated human T cells were stimulated with 30 ng/ml PMA, 1 μg/ml ionomycin and 2.5 μg/ml monensin in complete RPMI-1640 medium at 37° C. for 4 hours. […]

CD8+ T cells [5] = assay: Cytotoxic CD8+ T cell markers, T cells from human PBMC; format: cell-based; details: human PBMC T cells activated by α-CD3/CD28 and IL-2; butyrate 1 mM
Protocol: as §3, §4

TLR5 [6] = target: TLR5 (Homo sapiens, UniProt O60602); assay: biochemical
Sequence of TLR5 (O60602 21-858, species assumed): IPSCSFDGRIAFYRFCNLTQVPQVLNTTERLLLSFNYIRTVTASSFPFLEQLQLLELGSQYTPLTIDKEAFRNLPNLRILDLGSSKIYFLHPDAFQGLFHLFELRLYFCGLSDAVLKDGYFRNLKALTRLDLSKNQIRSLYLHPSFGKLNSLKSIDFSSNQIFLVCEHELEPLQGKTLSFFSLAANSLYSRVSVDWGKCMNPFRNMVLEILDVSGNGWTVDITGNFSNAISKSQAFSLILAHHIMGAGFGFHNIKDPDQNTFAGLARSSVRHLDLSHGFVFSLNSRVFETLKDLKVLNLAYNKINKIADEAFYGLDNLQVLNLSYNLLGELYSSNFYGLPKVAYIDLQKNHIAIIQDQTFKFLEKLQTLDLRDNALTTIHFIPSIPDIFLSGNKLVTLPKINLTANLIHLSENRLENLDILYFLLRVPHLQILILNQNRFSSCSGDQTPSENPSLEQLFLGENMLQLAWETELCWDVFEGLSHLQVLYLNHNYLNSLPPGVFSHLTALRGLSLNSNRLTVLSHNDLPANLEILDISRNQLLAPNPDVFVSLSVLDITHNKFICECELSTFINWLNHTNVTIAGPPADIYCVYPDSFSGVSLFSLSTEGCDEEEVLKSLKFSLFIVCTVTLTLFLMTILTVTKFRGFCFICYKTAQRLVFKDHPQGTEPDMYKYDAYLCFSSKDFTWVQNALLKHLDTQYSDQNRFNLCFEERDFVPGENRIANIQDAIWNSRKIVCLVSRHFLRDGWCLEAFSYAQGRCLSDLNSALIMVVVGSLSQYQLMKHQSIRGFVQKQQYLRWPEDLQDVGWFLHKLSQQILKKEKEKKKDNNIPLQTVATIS

[7] = ICA 18 mg/kg daily gavage with anti-PD1 vs vehicle control

O=C(O)c1c[nH]c2ccccc12 [ICA, indole-3-carboxylic acid]
IDO1 expression (IDO1): significantly suppressed IDO1 expression
Kyn-induced CYP1B1 expression (AHR; ICA added to Kyn 50 μM): markedly suppressed Kyn-induced CYP1B1 expression
CYP1B1 expression (AHR; ICA alone): weakly promoted CYP1B1 expression
IFNγ+ CD8+ T cells (CT26; ICA): increased IFNγ+ CD8+ T cells
Kyn level in serum (CT26; ICA): significantly reduced Kyn level
Kyn level in tumour (CT26; ICA): significantly reduced Kyn level
Kyn/Trp ratio in tumour (CT26; ICA): significantly reduced
Treg infiltration (CT26; ICA): reduced Treg infiltration
tumour volume (CT26; [7]): reduced tumour weight and tumour volume
tumour weight (CT26; [7]): reduced tumour weight
Kd (human AHR protein): ~39.4 µM
Kyn-mediated Treg differentiation (CD4+ T cells; ICA added to Kyn 50 μM): antagonized Kyn-mediated Treg differentiation in a dose-dependent manner
Treg differentiation, treatment alone (CD4+ T cells; naïve CD4+ T cells, without Kyn): none significantly affected Treg differentiation
ICA dose antagonizing Kyn-mediated Treg differentiation (CD4+ T cells; with Kyn 50 μM): ≥ 1.25 µM

CCCC(=O)O [butyrate, butyric acid]
cell viability of CRC cells (HCT116, LoVo, SW480 [1]): cell viability inhibition
cell apoptosis (HCT116, LoVo, SW480 [2]): apoptosis inducement
cell cycle (HCT116, LoVo, SW480 [2]): cell cycle arrest
NF-κB nuclear translocation / phospho-NF-κB expression (NF-κB): increased NF-κB nuclear translocation with higher phospho-NF-κB expression
Tlr5 expression (Tlr5 [3]): much higher
Granzyme B+, IFN-γ+, TNF-α+ CD8+ T cells (CD8+ T cells [4]): directly boosted Granzyme B^+, IFN-γ^+, TNF-α^+ CD8^+ T cells
production of Granzyme B, IFN-γ and TNF-α in CD8+ T cells (CD8+ T cells [5]): promoted the production of Granzyme B, IFN-γ and TNF-α in CD8^+ T cells
Kd (TLR5 [6]): 264 µM

OC[C@H]1O[C@@H](n2cnc3c(O)ncnc32)[C@H](O)[C@@H]1O [inosine, reference compound]
cell viability of CRC cells (HCT116, LoVo, SW480 [1]): no suppressive effects
cell apoptosis (HCT116, LoVo, SW480 [2]): no suppressive effects
cell cycle (HCT116, LoVo, SW480 [2]): no suppressive effects
Granzyme B+, IFN-γ+, TNF-α+ CD8+ T cells (CD8+ T cells [4]): no effects on Granzyme B^+, IFN-γ^+, TNF-α^+ CD8^+ T cells
